Source: publication PMC9460261, “Need for a Standardized Translational Drug Development Platform: Lessons Learned from the Repurposing of Drugs for COVID-19” (Microorganisms, 2022)
Where two headings read alike, the source gives them in different places.

Columns and labels:
SARS-CoV-2 [1] = format: in vivo, Syrian hamster; settings: for Activity in SARS-CoV-2 Hamster Model: doses, frequency, duration as in Table 1
SARS-CoV-2 in Vero cells [2] = system: SARS-CoV-2 in Vero cells
[3] = system: SARS-CoV-2 in Calu-3 cells
[4] = system: SARS-CoV-2 in A549-Dual hACE2-TMPRSS2 cells; parameters: method as in Abdelnabi et al., 2022 [60]; settings: ref Abdelnabi et al., 2022 [60]; cited from earlier work
[5] = Plasma protein binding, hamster; settings: hamster, plasma
SARS-CoV-2 in Vero cells [6] = assay: microbe, parasite or virus in culture; settings: Severe acute respiratory syndrome coronavirus 2, Vero
[7] = system: SARS-CoV-2 in Calu-3 cells; assay: microbe, parasite or virus in culture; settings: Severe acute respiratory syndrome coronavirus 2, Calu-3, read-out: Calu-3 cells Average IC50
[8] = Binding to antiviral assay medium by Rapid Equilibrium Dialysis; settings: bovine
[9] = female, LGV Golden Syrian, hamster, in vivo
SARS-CoV-2 [10] = settings: read-out: SARS-CoV-2 EC50, cited from earlier work
in vitro [11] = settings: hamster, plasma
[12] = cited from earlier work
in vitro [13] = settings: African green monkey, Selectivity Index (Vero cells)
[14] = Population PK model from satellite PK studies in hamster
[15] = Population PK model in human (digitized literature data); settings: modelled from digitized data
in vitro [16] = settings: bovine
in vitro [17] = settings: human, plasma
[18] = read-out: VERO cells Average IC50, With Pgp pump inhibitor, 2 μM CP-100356, * one replicate only
[19] = read-out: VERO cells Average IC50, Without Pgp pump inhibitor, * one replicate only
[20] = hamster of the study's median weight (80-131 g)
[21] = human, ref 68 (ambroxol), 71-73 (cepharanthine)
[22] = human, ref 68 (ambroxol), 71-73 (cepharanthine), 78 (fluvoxamine), 80 (molnupiravir)

With `CC(C)(C)[C@H](NC(=O)C(F)(F)F)C(=O)N1C[C@H]2[C@@H]([C@H]1C(=O)N[C@H](C#N)C[C@@H]1CCNC1=O)C2(C)C` [Nirmatrelvir, nirmatrelvir] the “Activity in SARS-CoV-2 Hamster Model” value (SARS-CoV-2 [1]) was “Yes”, the “Activity in SARS-CoV-2 Hamster Model” value (SARS-CoV-2 [1]; listed as nirmatrelvir) was “demonstrated in vivo efficacy” and the “Lung TCID50 of SARS-CoV-2 in the hamster model” value (SARS-CoV-2 [1]; hamster, in vivo) was “significant reduction”. The “Activity In Vitro; Potency EC50 or IC50 < 10 µM; Vero Cells” value (from here on “Activity In Vitro … Vero Cells”) (SARS-CoV-2 in Vero cells [2]) was “Yes (Potency EC50 or IC50 < 10 µM)”, the “Activity In Vitro; Potency EC50 or IC50 < 10 µM; Calu-3 Cells” value (“Activity In Vitro … Calu-3 Cells” for short) [3] was “Yes (Potency EC50 or IC50 < 10 µM)” and the EC50 [4] was 0.11 µM. For the same compound, the fraction unbound [5] was 0.621, the IC50 (SARS-CoV-2 in Vero cells [6]; [18]) was < 0.05 µM and the IC50 (SARS-CoV-2 in Vero cells [6]; [19]) was 3.4 µM. The IC50 [7] was 0.3 µM and the fraction unbound [8] was 0.898.

With `NC(=O)c1nc(F)c[nH]c1=O` [Favipiravir, favipiravir] the “Activity in SARS-CoV-2 Hamster Model” value (SARS-CoV-2 [1]) was “Yes”, the “Activity in SARS-CoV-2 Hamster Model” value (SARS-CoV-2 [1]; listed as favipiravir) was “demonstrated in vivo efficacy” and the “Activity In Vitro … Vero Cells” value (SARS-CoV-2 in Vero cells [2]) was “No (Potency EC50 or IC50 < 10 µM)”. For the same compound, the “Activity In Vitro … Calu-3 Cells” value [3] was “No (Potency EC50 or IC50 < 10 µM)”, the “CL/F, elimination clearance, population estimate (%RSE)” value (shortened to “CL/F, elimination clearance … (%RSE)”) [9] was 58.2 (6.06) mL/h and the “KA, absorption rate constant, population estimate (%RSE)” value (“KA, absorption rate constant … (%RSE)” below) [9] was 0.774 (7.71) h-1. For the same compound, the “Q/F (Q1/F), inter-compartment clearance, population estimate (%RSE)” value [9] was 1.80 (12.7) mL/h, the “VC/F, central volume of distribution, population estimate (%RSE)” value (shortened to “VC/F, central volume … (%RSE)”) [9] was 11.7 (14.7) mL and the “VP/F, peripheral volume of distribution, population estimate (%RSE)” value (“VP/F, peripheral volume … (%RSE)” for short) [9] was 11.6 (8.7) mL. The EC50 (SARS-CoV-2 [10]; host cell Vero E6, ref 17) was 446 µM, the EC50 (SARS-CoV-2 [10]; host cell Vero E6, ref 31) was > 100 µM and the EC50 (SARS-CoV-2 [10]; host cell Vero E6, ref 32) was > 50 µM. The EC50 (SARS-CoV-2 [10]; host cell Vero E6, ref 34) was 117 µM, the EC50 (SARS-CoV-2 [10]; host cell Vero E6, ref 35) was 62 µM and the EC50 (SARS-CoV-2 [10]; host cell Vero, ref 25) was > 500 µM. The EC50 (SARS-CoV-2 [10]; host cell Vero, ref 36) was > 20 µM, the EC50 (SARS-CoV-2 [10]; host cell VeroE6/TMPRSS2) was > 64 µM and the fraction unbound (in vitro [11]) was 0.821. For the same compound, the “Fraction unbound in plasma, human” value ([12]; human, plasma) was 46%, the IC50 (SARS-CoV-2 in Vero cells [6]; [18]) was > 50 µM and the IC50 (SARS-CoV-2 in Vero cells [6]; [19]) was > 50 µM. The IC50 [7] was > 50 µM and the fraction unbound [8] was 0.993.

For `COC(=O)N[C@H](C(=O)N1CCC[C@H]1c1nc(-c2ccc(-c3ccc(-c4c[nH]c([C@@H]5CCCN5C(=O)[C@@H](NC(=O)OC)C(C)C)n4)cc3)cc2)c[nH]1)C(C)C` [Daclatasvir, daclatasvir], the “Activity in SARS-CoV-2 Hamster Model” value (SARS-CoV-2 [1]) was “No”, the “Activity in SARS-CoV-2 Hamster Model” value (SARS-CoV-2 [1]; listed as daclatasvir) was “no activity” and the “Activity In Vitro … Vero Cells” value (SARS-CoV-2 in Vero cells [2]; in the presence of a P-glycoprotein inhibitor (^Pgp)) was “Yes (Potency EC50 or IC50 < 10 µM)”. The “Activity In Vitro … Calu-3 Cells” value [3] was “No (Potency EC50 or IC50 < 10 µM)”, the EC50 (SARS-CoV-2 [10]; host cell Calu-3) was 1.1 µM and the EC50 (SARS-CoV-2 [10]; host cell HuH-7) was 0.6 µM. For the same compound, the EC50 (SARS-CoV-2 [10]; host cell Vero, ref 26) was 0.8 µM, the selectivity ratio (in vitro [13]; With Pgp pump inhibitor, T: toxicity observed) was > 6.6 and the selectivity ratio (in vitro [13]; Without Pgp pump inhibitor, T: toxicity observed) was > 2.5. For the same compound, the “Fraction unbound in plasma, human” value ([12]; literature, ref 61 (N-desethylamodiaquine), 62 (atazanavir), 63 (daclatasvir), 64 (favipiravir), 65 (ivermectin), 66 (tizoxanide), 67 (sofosbuvir)) was 1%, the fraction unbound [5] was 0.055 and the IC50 (SARS-CoV-2 in Vero cells [6]; [18]) was 7.6 µM. The IC50 (SARS-CoV-2 in Vero cells [6]; [19]) was 19.8 µM, the IC50 [7] was 24.4 µM and the “CL/F, elimination clearance … (%RSE)” value [14, 20] was 239 (19.6) mL/h. The “KA, absorption rate constant … (%RSE)” value [14, 20] was 0.415 (5.84) h-1, the “Q/F (Q1/F), inter-compartment clearance, population estimate (%RSE)” value [14, 20] was 33.4 (25.5) mL/h and the “VC/F, central volume … (%RSE)” value [14, 20] was 86.3 (27.0) mL. For the same compound, the “VP/F, peripheral volume … (%RSE)” value [14, 20] was 438 (25.6) mL and the fraction unbound [8] was 0.209.

In the case of `COc1ccc2cc1Oc1ccc(cc1)C[C@H]1c3c(cc4c(c3Oc3cc5c(cc3OC)CCN(C)[C@@H]5C2)OCO4)CCN1C` [Cepharanthine, cepharanthine], the “Activity in SARS-CoV-2 Hamster Model” value (SARS-CoV-2 [1]) is reported as “No”, the “F, population estimate (%RSE)” value ([15]; adult 70 kg) is reported as 0.116 (7.3%) and the “KA, population estimate (%RSE)” value ([15]; adult 70 kg) is reported as 0.187 (11.0%) h-1. For the same compound, the “Q2/F, population estimate (%RSE)” value ([15]; adult 70 kg) was 131 (14.2%) L/h, the “VP2/F, population estimate (%RSE)” value ([15]; adult 70 kg) was 438 (26.5%) L and the “Q/F (Q1/F), population estimate (%RSE)” value [15, 21] was 258 (7.6%) L/h. The “VP/F (VP1/F), population estimate (%RSE)” value [15, 21] was 9190 (7.3%) L, the “CL/F, population estimate (%RSE)” value [15, 22] was 74.4 (5.5%) L/h and the “VC/F, population estimate (%RSE)” value [15, 22] was 110 (10.8%) L. For the same compound, the “Activity In Vitro … Vero Cells” value (SARS-CoV-2 in Vero cells [2]) was “Yes (Potency EC50 or IC50 < 10 µM)”, the “Toxicity observed (^T), Vero Cells” value (SARS-CoV-2 in Vero cells [2]) was “Yes ^T” and the “Activity In Vitro … Calu-3 Cells” value [3] was “No (Potency EC50 or IC50 < 10 µM)”. The “CL/F, elimination clearance … (%RSE)” value [9] was 804 (25.0) mL/h, the “KA, absorption rate constant … (%RSE)” value [9] was 1.52 (27.0) h-1 and the “VC/F, central volume … (%RSE)” value [9] was 66400 (12.5) mL. For the same compound, the EC50 (SARS-CoV-2 [10]; host cell VeroE6/TMPRSS2) was 0.35 µM, the selectivity ratio (in vitro [13]; With Pgp pump inhibitor) was 17.2 and the selectivity ratio (in vitro [13]; Without Pgp pump inhibitor) was 9.7. For the same compound, the fraction unbound (in vitro [16]) was 0.643, the fraction unbound (in vitro [11]) was 0.018 and the fraction unbound (in vitro [17]) was 0.02. For the same compound, the IC50 (SARS-CoV-2 in Vero cells [6]; [18]) was 1.9 µM, the IC50 (SARS-CoV-2 in Vero cells [6]; [19]) was 4.5 µM and the IC50 [7] was > 50 µM.

In the case of `CC(C)/N=c1\cc2n(-c3ccc(Cl)cc3)c3ccccc3nc-2cc1Nc1ccc(Cl)cc1` [Clofazimine, clofazimine], the “Activity in SARS-CoV-2 Hamster Model” value (SARS-CoV-2 [1]) is reported as “No”, the “Activity In Vitro … Vero Cells” value (SARS-CoV-2 in Vero cells [2]) is reported as “Yes (Potency EC50 or IC50 < 10 µM)” and the “Toxicity observed (^T), Vero Cells” value (SARS-CoV-2 in Vero cells [2]) is reported as “Yes ^T”. For the same compound, the “Activity In Vitro … Calu-3 Cells” value [3] was “Yes (Potency EC50 or IC50 < 10 µM)”, the “CL/F, elimination clearance … (%RSE)” value [9] was 49.4 (7.2) mL/h and the “VC/F, central volume … (%RSE)” value [9] was 356 (11.9) mL. The EC50 (SARS-CoV-2 [10]; host cell Vero E6, ref 39) was 0.31 µM, the selectivity ratio (in vitro [13]; With Pgp pump inhibitor) was 208 and the selectivity ratio (in vitro [13]; Without Pgp pump inhibitor) was 8.4. For the same compound, the fraction unbound (in vitro [16]) was 0.003, the fraction unbound (in vitro [11]) was < 0.001 and the fraction unbound (in vitro [17]) was < 0.001. The IC50 (SARS-CoV-2 in Vero cells [6]; read-out: VERO cells Average IC50, With Pgp pump inhibitor) was 0.2 µM, the IC50 (SARS-CoV-2 in Vero cells [6]; read-out: VERO cells Average IC50, Without Pgp pump inhibitor) was 5.9 µM and the IC50 [7] was 8.4 µM. For the same compound, the “Dose effect on F (power)” value ([14]; covariate, hamster model) was -0.109 (16.2), the “Dose effect on KA (exp)” value ([14]; covariate, hamster model) was -0.0094 (20.4) and the “Q2/F, population estimate (%RSE)” value ([14]; hamster 120 g) was 90.5 (20.6) mL/h. For the same compound, the “VP2/F, population estimate (%RSE)” value ([14]; hamster 120 g) was 7390 (14.9) mL, the “KA, absorption rate constant … (%RSE)” value [14, 20] was 0.38 (11.0) h-1 and the “Q/F (Q1/F), inter-compartment clearance, population estimate (%RSE)” value [14, 20] was 235 (10.4) mL/h. The “VP/F, peripheral volume … (%RSE)” value [14, 20] was 2250 (28.0) mL.
